Experimental data reported in PMC9027131, “Dual PI3K/Akt Inhibitors Bearing Coumarin-Thiazolidine Pharmacophores as Potential Apoptosis Inducers in MCF-7 Cells” (Pharmaceuticals, 2022).

Key:
[1] = test system: MCF 10 non-tumorigenic epithelial cell line; assay: MTT assay in non-cancerous epithelial cells (MCF 10); assay type: cell-based
Method: MCF-7 breast cancer cell line (ATCC® HTB-22™) plus non-tumorigenic epithelial cell line (MCF 10, ATCC® CRL-10317™) were supplied from VACSERA (Cairo, Egypt) and cultured in Dulbecco’s Modified Eagle Medium (Invitrogen-Life Technologies, Carlsbad, CA, USA) with 1% antibiotic solution (streptomycin–penicillin) plus 10% fetal bovine serum (Hyclone) in a 5% (v/v) humidified CO2 incubator at 37 °C.
Firstly, cells were kept in a humidified atmosphere (37 °C, 24 h), and then incubated with serial concentrations of the tested compounds. After 48 h, the medium was aspirated, and then cells were incubated with 5% MTT solution (M-5655; Sigma Aldrich, St. Louis, MO USA) (200 µL/well, 2 h), allowing the dye to metabolize into the colored insoluble formazan complex that was then dissolved in the appropriate solubilization solution (M-8910) (200 µL/well), for 30 min with gentle mixing at room temperature. The UV absorbance was measured using a microplate reader (570 nm), and cell viability was determined with respect to untreated control cells.

[2] = molecular target: T1, PI3K-α (Homo sapiens, UniProt P42336); assay: PI3Kα (p110α/p85) enzyme inhibition assay kit; assay type: biochemical; settings: means ± sd, n = 3; read-out: IC50 (µM) PI3K-α Isoform
T1 construct: purchased BPS Bioscience, Inc 79781
From the text: (§1) Accumulating evidence highlighted that PI3K signaling pathway upregulation is highly implicated in breast cancer development and disease progression as well as resistance to hormones and cytotoxic therapy. Therefore, it is essential to elucidate the effect of the novel compound, VIIb, on the PI3K/Akt signaling pathway by using in vitro PI3K class 1A enzyme inhibition assay conducted on PI3K-α and PI3K-γ isoforms as well as an Akt-1 enzyme inhibition assay. […] Furthermore, targeting the PI3K-γ isoform in breast cancer could contribute to enhancing the anti-tumor immunity.
(§2) The in vitro inhibition of PI3K and Akt kinase activities by VIIb was assessed using a PI3Kα (p110α/p85) assay kit (Catalog #79781; BPS Bioscience, Inc, San Diego, CA, USA), PI3Kγ (p110γ/PIK3R5) assay kit (Catalog #79803; BPS Bioscience, Inc, San Diego, CA, USA), and Akt Kinase Activity assay kit (ab139436; Abcam, Cambridge, UK) following the manufacturer’s instructions as described previously. The results were expressed as IC50 values using dose–response curves and linear regression equations.

[3] = molecular target: T2, PI3K-γ (Homo sapiens, UniProt P48736); assay: PI3Kγ (p110γ/PIK3R5) enzyme inhibition assay kit; assay type: biochemical; settings: means ± sd, n = 3; read-out: IC50 (µM) PI3K-γ Isoform
T2 construct: purchased BPS Bioscience, Inc 79803
From the text: as §1, §2

[4] = molecular target: T3, Akt-1 (Homo sapiens, UniProt P31749); assay: Akt Kinase Activity assay kit; assay type: biochemical; settings: means ± sd, n = 3; read-out: IC50 (µM) Akt-1 Isoform
T3 construct: purchased Abcam ab139436
From the text: as §1
as §2, with “equations. LY294002 compound was taken as the reference compound. The values were means ± sd; n = 3.” for “equations.”

[5] = test system: MCF-7 cells; assay: Annexin V-FITC/PI apoptosis assay by flow cytometry; assay type: cell-based, human
From the text: Remarkably, clinical oncology aims at developing novel targeted cancer therapies that could induce apoptosis in neoplastic cells to enhance their eradication. Since loss of apoptosis is closely related to cancer cell survival and abnormal growth, induction of apoptotic signaling pathways is a crucial mechanism in targeted cancer therapy. To further explore the link between apoptosis rates and VIIb treatment, the pro-apoptotic activity of this novel compound was investigated by flow cytometry using both Annexin V (V) and propidium iodide (PI) dyes. A distinctive feature of early apoptosis is phosphatidylserine transfer toward the cellular surface. Thus, phosphatidylserine can be detected by fluorochrome-tagged anticoagulant protein V. Therefore, the viable cells remained unstained (V^−/PI^−).
Control untreated and MCF-7 cells treated with compound VIIb at its IC50 (µM) for 48 h were subjected to apoptotic analysis using Annexin V (V) and propidium iodide (PI) fluorescent dyes.
Cell cycle analysis and apoptosis rates following VIIb treatment were investigated using a Propidium Iodide Flow Cytometry Kit (ab139418; Abcam, Cambridge, UK) and Annexin V-FITC apoptosis kit (Catalog: K101-25; BioVision Research Products, San Francisco, CA, USA), respectively, following the manufacturer’s instructions as stated by a previous study.

[6] = test system: caspase-9; assay: Cleaved caspase-9 level by ELISA in MCF-7 cells; assay type: cell-based, human; settings: MCF-7, 48 h; control 2.712 ± 0.09; means ± sd, n = 3
Method: Apoptosis is a programmed cell death modality that includes an array of steps such as activation of caspases alongside endonucleases leading to DNA cleavage, eventually causing the formation of apoptotic bodies. Caspases are classified into effector caspases, such as caspase-3, -6, and -7, and initiator caspases, including either caspase-2, -8, and -10 (extrinsic pathway) or caspase-9 (intrinsic pathway).
The level of cleaved caspase-9 was assessed in both untreated/control MCF-7 cells and following VIIb treatment using DRG® Caspase-9 (human) ELISA (EIA-4860), following the manufacturer’s instructions (DRG International Inc., Springfield, NJ, USA). The data were means ± sd; n = 3.

[7] = MCF-7, with respect to control cells

T1 sequence (P42336 whole entry, canonical isoform): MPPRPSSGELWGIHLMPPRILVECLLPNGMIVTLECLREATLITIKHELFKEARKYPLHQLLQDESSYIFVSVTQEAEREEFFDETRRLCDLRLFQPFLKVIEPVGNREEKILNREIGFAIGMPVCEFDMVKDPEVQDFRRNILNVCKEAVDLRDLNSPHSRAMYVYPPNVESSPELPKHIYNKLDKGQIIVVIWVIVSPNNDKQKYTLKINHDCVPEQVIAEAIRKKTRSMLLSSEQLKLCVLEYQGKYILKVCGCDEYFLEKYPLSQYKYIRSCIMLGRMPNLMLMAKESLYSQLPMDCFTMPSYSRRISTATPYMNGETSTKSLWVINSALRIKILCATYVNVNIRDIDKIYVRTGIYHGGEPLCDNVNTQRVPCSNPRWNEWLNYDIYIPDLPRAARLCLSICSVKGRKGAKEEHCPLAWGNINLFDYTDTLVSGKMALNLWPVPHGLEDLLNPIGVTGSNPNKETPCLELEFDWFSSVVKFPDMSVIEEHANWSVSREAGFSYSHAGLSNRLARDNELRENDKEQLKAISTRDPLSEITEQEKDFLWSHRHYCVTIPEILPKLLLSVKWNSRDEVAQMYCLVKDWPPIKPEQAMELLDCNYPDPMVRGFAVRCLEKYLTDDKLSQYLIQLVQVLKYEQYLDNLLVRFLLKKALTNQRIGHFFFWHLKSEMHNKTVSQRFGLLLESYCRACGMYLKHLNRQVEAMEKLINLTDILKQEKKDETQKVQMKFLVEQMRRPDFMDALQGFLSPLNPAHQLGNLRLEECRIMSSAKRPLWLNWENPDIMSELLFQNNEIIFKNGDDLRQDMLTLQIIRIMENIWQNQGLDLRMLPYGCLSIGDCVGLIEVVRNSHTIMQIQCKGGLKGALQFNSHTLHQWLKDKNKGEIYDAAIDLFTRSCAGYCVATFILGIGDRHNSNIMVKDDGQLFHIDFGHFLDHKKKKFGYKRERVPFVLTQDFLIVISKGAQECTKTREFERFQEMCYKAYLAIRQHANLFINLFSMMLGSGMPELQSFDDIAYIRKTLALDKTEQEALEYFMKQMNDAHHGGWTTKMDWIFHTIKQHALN
T1 sequence (P27986 whole entry partner, canonical isoform): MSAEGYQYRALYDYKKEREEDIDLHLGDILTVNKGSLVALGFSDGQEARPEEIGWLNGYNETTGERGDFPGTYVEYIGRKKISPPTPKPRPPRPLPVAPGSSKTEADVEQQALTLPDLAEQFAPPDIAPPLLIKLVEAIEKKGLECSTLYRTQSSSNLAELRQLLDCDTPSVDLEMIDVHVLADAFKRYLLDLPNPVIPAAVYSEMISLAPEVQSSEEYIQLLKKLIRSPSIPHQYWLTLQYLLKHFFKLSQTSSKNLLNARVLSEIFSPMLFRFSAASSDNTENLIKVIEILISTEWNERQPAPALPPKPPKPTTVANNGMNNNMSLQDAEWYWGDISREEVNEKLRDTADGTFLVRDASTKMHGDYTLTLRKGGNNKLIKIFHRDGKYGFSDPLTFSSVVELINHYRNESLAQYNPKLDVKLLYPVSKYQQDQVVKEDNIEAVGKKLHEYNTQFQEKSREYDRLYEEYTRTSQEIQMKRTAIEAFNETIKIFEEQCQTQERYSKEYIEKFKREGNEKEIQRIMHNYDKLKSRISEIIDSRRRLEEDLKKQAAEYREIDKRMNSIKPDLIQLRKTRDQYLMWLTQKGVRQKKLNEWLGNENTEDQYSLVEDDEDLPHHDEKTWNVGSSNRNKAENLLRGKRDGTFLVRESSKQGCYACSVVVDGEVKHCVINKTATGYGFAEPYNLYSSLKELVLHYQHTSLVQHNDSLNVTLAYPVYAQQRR
T3 sequence (P31749 whole entry, species assumed, canonical isoform): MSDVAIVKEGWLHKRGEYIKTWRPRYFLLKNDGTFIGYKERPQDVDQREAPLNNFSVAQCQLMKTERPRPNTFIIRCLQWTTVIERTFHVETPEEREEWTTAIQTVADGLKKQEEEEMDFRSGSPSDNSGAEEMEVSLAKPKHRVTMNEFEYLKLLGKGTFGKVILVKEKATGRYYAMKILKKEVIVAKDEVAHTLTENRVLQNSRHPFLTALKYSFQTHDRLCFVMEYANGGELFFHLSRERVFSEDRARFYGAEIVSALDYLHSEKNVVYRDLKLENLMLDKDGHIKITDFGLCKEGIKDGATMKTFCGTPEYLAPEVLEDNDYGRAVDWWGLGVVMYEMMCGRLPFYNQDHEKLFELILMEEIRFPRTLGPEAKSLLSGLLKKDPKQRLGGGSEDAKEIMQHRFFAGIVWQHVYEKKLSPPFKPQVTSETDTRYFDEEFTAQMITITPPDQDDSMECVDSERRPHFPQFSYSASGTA
T2 sequence (P48736 whole entry, canonical isoform): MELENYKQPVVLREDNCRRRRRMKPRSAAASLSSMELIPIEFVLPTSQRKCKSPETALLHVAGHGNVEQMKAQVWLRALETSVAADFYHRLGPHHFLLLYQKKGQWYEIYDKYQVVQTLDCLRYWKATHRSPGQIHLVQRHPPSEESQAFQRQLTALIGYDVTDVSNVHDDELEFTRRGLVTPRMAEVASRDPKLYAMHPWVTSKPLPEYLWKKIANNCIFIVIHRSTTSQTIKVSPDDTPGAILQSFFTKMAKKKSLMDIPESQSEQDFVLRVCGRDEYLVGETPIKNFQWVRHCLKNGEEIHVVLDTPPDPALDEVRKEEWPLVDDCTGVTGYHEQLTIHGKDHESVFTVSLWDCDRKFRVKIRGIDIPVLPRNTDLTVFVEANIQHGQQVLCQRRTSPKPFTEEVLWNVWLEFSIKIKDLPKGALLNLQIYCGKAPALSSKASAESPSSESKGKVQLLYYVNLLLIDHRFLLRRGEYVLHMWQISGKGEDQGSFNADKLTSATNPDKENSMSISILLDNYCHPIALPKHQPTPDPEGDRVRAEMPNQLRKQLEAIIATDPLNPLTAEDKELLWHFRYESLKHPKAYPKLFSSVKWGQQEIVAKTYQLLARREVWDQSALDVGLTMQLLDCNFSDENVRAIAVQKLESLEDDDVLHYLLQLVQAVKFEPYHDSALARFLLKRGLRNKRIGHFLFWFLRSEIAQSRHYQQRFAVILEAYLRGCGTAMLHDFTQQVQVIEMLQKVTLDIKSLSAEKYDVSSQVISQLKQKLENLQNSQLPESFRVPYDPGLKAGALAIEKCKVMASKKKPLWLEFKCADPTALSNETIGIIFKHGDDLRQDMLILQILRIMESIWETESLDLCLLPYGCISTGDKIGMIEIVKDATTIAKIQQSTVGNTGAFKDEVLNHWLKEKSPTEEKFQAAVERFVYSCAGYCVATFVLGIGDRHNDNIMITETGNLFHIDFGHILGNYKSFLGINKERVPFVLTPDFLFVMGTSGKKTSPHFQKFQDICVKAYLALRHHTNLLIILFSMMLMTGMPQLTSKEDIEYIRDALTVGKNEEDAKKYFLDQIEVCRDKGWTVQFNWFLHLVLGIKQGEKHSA
T2 sequence (Q8WYR1 whole entry partner, canonical isoform): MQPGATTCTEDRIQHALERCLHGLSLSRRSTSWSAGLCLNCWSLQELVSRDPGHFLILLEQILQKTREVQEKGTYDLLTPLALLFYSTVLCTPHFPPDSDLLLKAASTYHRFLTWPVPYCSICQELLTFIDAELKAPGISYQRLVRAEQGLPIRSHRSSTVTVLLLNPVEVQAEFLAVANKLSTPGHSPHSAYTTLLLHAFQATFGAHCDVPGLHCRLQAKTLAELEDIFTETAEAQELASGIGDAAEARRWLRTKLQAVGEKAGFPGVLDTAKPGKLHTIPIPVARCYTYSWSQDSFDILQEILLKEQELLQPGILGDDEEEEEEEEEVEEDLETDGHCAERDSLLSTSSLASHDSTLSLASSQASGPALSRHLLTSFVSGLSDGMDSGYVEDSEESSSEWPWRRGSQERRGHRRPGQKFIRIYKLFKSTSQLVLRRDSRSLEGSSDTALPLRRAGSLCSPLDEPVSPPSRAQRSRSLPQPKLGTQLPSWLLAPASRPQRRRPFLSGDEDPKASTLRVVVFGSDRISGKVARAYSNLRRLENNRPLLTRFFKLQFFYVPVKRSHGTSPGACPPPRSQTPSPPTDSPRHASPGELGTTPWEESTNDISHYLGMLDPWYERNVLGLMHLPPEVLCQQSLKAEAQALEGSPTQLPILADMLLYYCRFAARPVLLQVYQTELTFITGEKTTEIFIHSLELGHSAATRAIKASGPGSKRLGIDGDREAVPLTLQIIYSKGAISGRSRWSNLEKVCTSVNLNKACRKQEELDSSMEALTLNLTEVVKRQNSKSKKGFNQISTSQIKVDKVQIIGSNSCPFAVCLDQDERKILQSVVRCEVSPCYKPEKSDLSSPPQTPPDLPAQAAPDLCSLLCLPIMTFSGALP

C/C(=N/N=C1/SCC(=O)N1C(=O)c1ccccc1)c1c(O)ccc2c(C)cc(=O)oc12 [VIIb]
IC50 ([1]; Homo sapiens, MCF10, MTT assay, non-cancerous epithelial cells, means ± sd, n = 3): 9.52 ± 0.6 µM | Selectivity Index MCF-10/MCF-7 ([1]; ratio of IC50 MCF-10 to IC50 MCF-7): 9.24 | IC50 [2]: 3.7 ± 0.19 µM | IC50 [3]: 34.7 ± 1.88 µM | IC50 [4]: 2.93 ± 0.15 µM | Apoptosis % Late (V+/PI+) ([5]; MCF-7, treated at IC50, 48 h, control 0.17): 21.05% | Apoptosis % Early (V+/PI−) ([5]; MCF-7, treated at IC50, 48 h, control 0.48): 2.51% | Necrosis% ([5]; MCF-7, treated at IC50, 48 h, control 0.90): 11.69% | Apoptosis % Total ([5]; MCF-7, treated at IC50, 48 h, control 1.55): 35.25% | fold increase in early apoptotic cells [5, 7]: 5 fold | fold increase in late apoptotic cells [5, 7]: 100 fold | Caspase-9 Level [6]: 21.61 ± 0.14 ng/mL
